Experimental data reported in paper PMC9646841, “A bead-based GPCR phosphorylation immunoassay for high-throughput ligand profiling and GRK inhibitor screening” (Communications Biology, 2022).
Values joined by “and” are separate entries in the source; they are usually repeats but may differ in a detail not shown here. Identical values can stand only once. Like-named read-outs stand apart in the source and are kept apart here. Square brackets hold non-standard residues; d marks the D form. Peptide text beside a SMILES is read from it. Cha = N[C@@H](CC1CCCCC1)C(=O)O; dCha = N[C@H](CC1CCCCC1)C(=O)O

Legend:
[1] = molecular target: T1, C5a1 (Homo sapiens, UniProt P21730); test: pS338/pT339-C5a1 7TM phosphorylation assay; assay type: cell-based; settings: for Emax: read-out: Emax (% Control C028) pS338/pT339-C5a1
T1 construct: host or cells: Control-HEK293, ΔGRK2/3-HEK293, ΔGRK5/6-HEK293, stably expressing
T1 sequence (P21730 1-350): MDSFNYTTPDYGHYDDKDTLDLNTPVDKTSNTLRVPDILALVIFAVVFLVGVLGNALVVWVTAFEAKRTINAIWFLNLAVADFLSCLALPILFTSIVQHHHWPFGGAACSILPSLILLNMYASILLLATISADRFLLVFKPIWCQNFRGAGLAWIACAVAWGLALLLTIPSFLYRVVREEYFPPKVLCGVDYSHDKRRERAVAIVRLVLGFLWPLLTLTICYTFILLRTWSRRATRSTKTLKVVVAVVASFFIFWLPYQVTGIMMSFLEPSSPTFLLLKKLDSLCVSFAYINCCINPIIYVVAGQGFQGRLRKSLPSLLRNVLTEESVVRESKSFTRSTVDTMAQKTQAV

[2] = molecular target: T1, C5a1; test: Total C5a1 loading control (np-C5a1 / anti-HA); assay type: cell-based
[3] = C028 10 µM, ΔGRK5/6-C5aR1-HEK293, concentration series
[4] = ΔGRK2/3-C5aR1-HEK293, C028 10 µM (concentration series)

## N=C(N)NCCC[C@@H](NC(=O)[C@H](CC1CCCCC1)NC(=O)[C@@H](CC1CCCCC1)NC(=O)[C@@H]1CCCN1C(=O)[C@H](CCCCN)NC(=O)[C@@H](N)Cc1ccccc1)C(=O)O [C028, FKP-(D-Cha)-Cha-r] (H-FKP[dCha][Cha][dR]-OH)
[1]; [3]
  pS338/pS339 normalized: 60.81% and 85.60% and 54.29% and 47.10% and 52.27% and 73.34% and 65.73% and 72.42%
  pS338/pS339 signal, raw: 0.6953 and 0.6053 and 0.6054 and 0.6811 and 0.925 and 0.7569 and 1.0104 and 1.1456
[1]; Control-HEK293
  Emax: 100%
[1]; pEC50 pS338/pT339-C5a1, Control-HEK293
  EC50: 0.631 µM
[1]; pEC50 pS338/pT339-C5a1, ΔGRK2/3-HEK293
  EC50: 1 µM
[1]; ΔGRK2/3-HEK293
  Emax: 55.2%
[1]; ΔGRK5/6-HEK293
  Emax: 63.9%
[2]; C028 0.01 µM, Control-C5aR1-HEK293
  np signal, raw: 1.7187 and 1.7849 and 1.2842 and 1.2491 and 1.8947
[2]; C028 0.01 µM, ΔGRK2/3-C5aR1-HEK293
  np signal, raw: 1.3719 and 1.658 and 1.494 and 1.3769 and 1.8182
[2]; C028 0.1 µM, Control-C5aR1-HEK293
  np signal, raw: 1.8405 and 1.7894 and 1.13 and 1.0755 and 1.6047
[2]; C028 0.1 µM, ΔGRK2/3-C5aR1-HEK293
  np signal, raw: 1.6138 and 1.8688 and 1.3994 and 1.4066 and 1.6881
[2]; C028 0.1 µM, ΔGRK5/6-C5aR1-HEK293
  np signal, raw: 1.983 and 1.7745 and 1.5114 and 1.8261 and 1.6189
[2]; C028 0.3 µM, ΔGRK5/6-C5aR1-HEK293
  np signal, raw: 1.6298 and 1.4921 and 1.6333 and 1.6817 and 1.6758
[2]; C028 1 µM, ΔGRK2/3-C5aR1-HEK293
  np signal, raw: 1.3996 and 1.4952 and 2.1996 and 1.4182 and 2.2245
[2]; C028 1 µM, ΔGRK5/6-C5aR1-HEK293
  np signal, raw: 1.9501 and 1.5997 and 1.4175 and 1.1243 and 1.5682
[2]; C028 3 µM, Control-C5aR1-HEK293
  np signal, raw: 1.9121 and 1.6861 and 1.569 and 1.3939 and 2.1397
[2]; C028 3 µM, ΔGRK2/3-C5aR1-HEK293
  np signal, raw: 1.5651 and 1.596 and 2.1319 and 1.2489 and 1.5422
[2]; C028 3 µM, ΔGRK5/6-C5aR1-HEK293
  np signal, raw: 1.6842 and 1.511 and 1.6612 and 1.9363 and 1.5067
[2]; C028 10 µM, Control-C5aR1-HEK293, concentration series
  np signal, raw: 1.6592 and 1.6457 and 1.7245 and 1.2748 and 1.696
[2]; C028 10 µM, Control-C5aR1-HEK293, first 0/10 µM pair
  np signal, raw: 1.6592 and 1.6457 and 1.3473 and 1.1686 and 1.879
[2]; C028 10 µM, Control-C5aR1-HEK293, last 0/10 µM pair of Control block
  np signal, raw: 1.9885 and 1.4944 and 1.4087 and 1.155 and 1.5321
[2]; C028 10 µM, Control-C5aR1-HEK293 beside ΔGRK2/3 block
  np signal, raw: 2.0332 and 1.1801 and 1.5046 and 1.4934 and 1.6943
[2]; C028 10 µM, Control-C5aR1-HEK293 beside ΔGRK5/6 block
  np signal, raw: 1.9038 and 2.0072 and 1.4662 and 1.7694 and 1.271
[2]; C028 10 µM, ΔGRK2/3-C5aR1-HEK293, concentration series
  np signal, raw: 1.5246 and 1.7106 and 1.3042 and 1.3389 and 1.7008
[2]; C028 10 µM, ΔGRK2/3-C5aR1-HEK293, first 0/10 µM pair
  np signal, raw: 1.2045 and 1.6486 and 1.422 and 1.3225 and 1.7342
[2]; [3]
  np signal, raw: 2.2585 and 1.8872 and 1.4472 and 1.4134 and 1.6269
[2]; C028 10 µM, ΔGRK5/6-C5aR1-HEK293, first 0/10 µM pair
  np signal, raw: 2.1115 and 2.0551 and 1.5281 and 1.3721 and 1.3579
[2]; Control-C5aR1-HEK293, C028 0.01 µM, concentration series
  np (raw signal): 1.9803 and 1.5907 and 1.3538 and 1.2438 and 1.436 and 1.5903 and 1.7448 and 1.269
[2]; Control-C5aR1-HEK293, C028 0.3 µM, concentration series
  np (raw signal): 1.588 and 1.7265 and 1.5961 and 0.9789 and 1.4851 and 1.7215 and 1.957 and 1.5097
[2]; Control-C5aR1-HEK293, C028 0.01 µM
  np (total C5aR1), raw signal: 1.3949 and 1.3266 and 1.5751 and 1.603 and 1.9857 and 2.1902
[2]; Control-C5aR1-HEK293, C028 0.1 µM
  np (total C5aR1), raw signal: 1.088 and 1.5141 and 1.6432 and 1.3119 and 2.129 and 1.8032
[2]; Control-C5aR1-HEK293, C028 0.3 µM
  np (total C5aR1), raw signal: 1.3568 and 1.8238 and 1.5485 and 1.2855 and 1.9306 and 1.5751
[2]; Control-C5aR1-HEK293, C028 1 µM
  np (total C5aR1), raw signal: 1.4754 and 1.6232 and 1.785 and 1.3295 and 1.6944 and 2.063
[2]; Control-C5aR1-HEK293, C028 3 µM
  np (total C5aR1), raw signal: 1.2425 and 1.4862 and 1.9242 and 1.5919 and 2.0564 and 1.6025
[2]; Control-C5aR1-HEK293 beside ΔGRK5/6 series, C028 10 µM
  np (total C5aR1), raw signal: 2.3386 and 2.3729 and 1.6554 and 1.7709 and 1.3577 and 1.3562 and 1.5255
[2]; Control-C5aR1-HEK293 run beside the ΔGRK2/3 block, C028 10 µM
  np (raw signal): 1.8085 and 2.0631 and 1.4603 and 1.3915 and 1.4955 and 1.1807
[2]; Control-C5aR1-HEK293 run beside the ΔGRK5/6 block, C028 10 µM
  np (raw signal): 1.9033 and 1.7695 and 1.3647 and 1.1555 and 2.1969 and 1.68 and 1.7195 and 1.5597
[2]; ΔGRK2/3-C5aR1-HEK293, C028 0.01 µM, concentration series
  np (raw signal): 1.9037 and 1.8736 and 1.6092 and 1.5411 and 1.8666 and 1.9049 and 1.8208 and 1.3708
[2]; ΔGRK2/3-C5aR1-HEK293, C028 0.1 µM, concentration series
  np (raw signal): 1.8343 and 1.6381 and 1.9187 and 1.6055 and 2.1604 and 1.5161 and 1.9037 and 1.8736
[2]; ΔGRK2/3-C5aR1-HEK293, C028 0.3 µM, concentration series
  np (raw signal): 1.6659 and 1.792 and 1.7372 and 1.7036 and 2.059 and 1.9288 and 1.8343 and 1.6381
[2]; ΔGRK2/3-C5aR1-HEK293, C028 1 µM, concentration series
  np (raw signal): 1.7539 and 1.6924 and 1.7772 and 1.4498 and 2.0307 and 1.5417 and 1.6659 and 1.792
[2]; ΔGRK2/3-C5aR1-HEK293, C028 3 µM, concentration series
  np (raw signal): 1.6846 and 1.3473 and 1.4287 and 1.3661 and 2.0103 and 1.5757 and 1.7539 and 1.6924
[2]; ΔGRK2/3-C5aR1-HEK293, C028 0.01 µM
  np (total C5aR1), raw signal: 1.9989 and 2.1791 and 2.1472 and 1.695 and 1.8681 and 1.8947 and 1.79
[2]; ΔGRK2/3-C5aR1-HEK293, C028 0.1 µM
  np (total C5aR1), raw signal: 2.1466 and 2.0776 and 2.1938 and 2.0797 and 1.633 and 1.3767 and 1.2578
[2]; ΔGRK2/3-C5aR1-HEK293, C028 0.3 µM
  np (total C5aR1), raw signal: 1.9738 and 1.8316 and 2.0611 and 2.0567 and 1.8444 and 1.4691 and 1.6375
[2]; ΔGRK2/3-C5aR1-HEK293, C028 1 µM
  np (total C5aR1), raw signal: 1.8294 and 2.1206 and 2.1815 and 1.9867 and 1.4524 and 1.8069 and 1.3881
[2]; ΔGRK2/3-C5aR1-HEK293, C028 3 µM
  np (total C5aR1), raw signal: 1.9342 and 1.5491 and 2.0615 and 1.8761 and 1.3783 and 1.8045 and 1.3094
[2]; ΔGRK2/3-C5aR1-HEK293, C028 10 µM (0/10 µM pair)
  np (total C5aR1), raw signal: 1.6776 and 1.597 and 2.0065 and 1.9839 and 1.7864 and 1.8111 and 1.5147
[2]; [4]
  np (raw signal): 1.6617 and 1.8239 and 1.3136 and 1.3724 and 1.8559 and 1.6
  np (total C5aR1), raw signal: 2.0002 and 1.769 and 2.052 and 2.2047 and 1.6138 and 1.7275 and 1.9566
[2]; ΔGRK5/6-C5aR1-HEK293, C028 0.3 µM, concentration series
  np (raw signal): 1.7318 and 1.8541 and 1.5067 and 1.2715 and 1.8493 and 2.0046 and 1.7672 and 1.7676
[2]; ΔGRK5/6-C5aR1-HEK293, C028 1 µM, concentration series
  np (raw signal): 2.0252 and 1.7968 and 1.4934 and 1.2437 and 2.0647 and 1.7841 and 1.4601 and 1.5886
[2]; ΔGRK5/6-C5aR1-HEK293, C028 10 µM, first 0/10 µM column pair
  np (raw signal): 1.7829 and 1.9246 and 1.5744 and 1.3841 and 1.8642 and 1.9552 and 1.5996 and 1.6914
[2]; ΔGRK5/6-C5aR1-HEK293, C028 10 µM (0/10 µM pair)
  np (total C5aR1), raw signal: 1.7545 and 1.6551 and 1.4386 and 1.778 and 1.4304 and 1.6743 and 2.0075
[2]; ΔGRK5/6-C5aR1-HEK293, C028 10 µM (concentration series)
  np (total C5aR1), raw signal: 1.8811 and 1.8348 and 1.6561 and 1.4006 and 1.0888 and 1.1737 and 1.1522
